The assay deals with β-catenin-TCF-mediated reporter transcription activity in Colo 205 cells. Description: Colo 205 reporter assay (TCF/LEF luciferase). The class given is cell-based. To be noted: Colo 205 TCF/LEF luciferase reporter, five hours after addition of compound, read-out: TCF reporter Colo205 IC50. Put shortly: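 Luciferase signal from a TCF/LEF-driven reporter, stably integrated in Colo 205 colon cancer cells, was measured 5 h after compound addition.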

Like-named read-outs stand apart in the source and are kept apart here. Where only a bound is given, the exact number is not on record here.

Take `Cc1nc(N[C@H]2C[C@@H](Cn3nc(Cl)c(C#N)n3)C2)nc2c1NC(=O)[C@H](C(C)C)N2C` [Compound 695, 5-chloro-2-((cis-3-(((S)-7-isopropyl-4,8-dimethyl-6-oxo-5,6,7,8-tetrahydropteridin-2-yl)amino)cyclobutyl)methyl)-2H-1,2,3-triazole-4-carbonitrile]: the 50% inhibitory concentration (IC50) (Homo sapiens, COLO 205, 5 h) is below 300 nM.

With `CC(=O)c1ccc(OC[C@H]2C[C@@H](Nc3nc(C)c4c(n3)N(C)[C@@H](C(C)C)C(=O)N4)C2)cn1` [Compound 696, (S)-2-((cis-3-(((6-acetylpyridin-3-yl)oxy)methyl)cyclobutyl)amino)-7-isopropyl-4,8-dimethyl-7,8-dihydropteridin-6(5H)-one], the IC50 (Homo sapiens, COLO 205, 5 h) was in the range of 300 to 1000 nM. The same measure, in the same setting: in the case of `Cc1nc(N[C@H]2C[C@@H](Cn3ccc(C(F)(F)F)n3)C2)nc2c1NC(=O)[C@H](C)N2C` [Compound 698, (S)-4,7,8-trimethyl-2-((cis-3-((3-(trifluoromethyl)-1H-pyrazol-1-yl)methyl)cyclobutyl)amino)-7,8-dihydropteridin-6(5H)-one] it was 300 to 1000 nM. On the same count and under the same terms, in the case of `Cc1nc(NC2CN(C(=O)C34CC(C(F)(F)F)(C3)C4)C2)nc2c1NC(=O)[C@H](C(C)C)N2C` [Compound 699, (S)-7-isopropyl-4,8-dimethyl-2-((1-(3-(trifluoromethyl)bicyclo[1.1.1]pentane-1-carbonyl)azetidin-3-yl)amino)-7,8-dihydropteridin-6(5H)-one] it was 1000 to 5000 nM; in that of `COCC1(C)C(=O)Nc2c(C)nc(NCc3cnn(Cc4ccc(C(F)(F)F)nc4)c3)nc2N1C` (centres unmarked) [Compound 703, 7-(methoxymethyl)-4,7,8-trimethyl-2-(((1-((6-(trifluoromethyl)pyridin-3-yl)methyl)-1H-pyrazol-4-yl)methyl)amino)-7,8-dihydropteridin-6(5H)-one], 300 to 1000 nM.

Take `COCC1(C)C(=O)Nc2c(C)nc(NCc3cnn(Cc4cc(C(F)(F)F)nn4C)c3)nc2N1C` (centres unmarked) [Compound 704, 7-(methoxymethyl)-4,7,8-trimethyl-2-(((1-((1-methyl-3-(trifluoromethyl)-1H-pyrazol-5-yl)methyl)-1H-pyrazol-4-yl)methyl)amino)-7,8-dihydropteridin-6(5H)-one]: the IC50 (Homo sapiens, COLO 205, 5 h) was below 300 nM. `COCC1(C)C(=O)Nc2c(C)nc(NCc3cnn(Cc4ccc(C(F)(F)F)nc4)c3)nc2N1C` (centres unmarked) [Compound 707, 7-(methoxymethyl)-4,7,8-trimethyl-2-(((1-((6-(trifluoromethyl)pyridin-3-yl)methyl)-1H-pyrazol-4-yl)methyl)amino)-7,8-dihydropteridin-6(5H)-one]: the IC50 fell in the range of 300 to 1000 nM. Same read-out and setting: in the case of `COCC1(C)C(=O)Nc2c(C)nc(NCc3cnn(Cc4cc(C(F)(F)F)nn4C)c3)nc2N1C` (centres unmarked) [Compound 709, 7-(methoxymethyl)-4,7,8-trimethyl-2-(((1-((1-methyl-3-(trifluoromethyl)-1H-pyrazol-5-yl)methyl)-1H-pyrazol-4-yl)methyl)amino)-7,8-dihydropteridin-6(5H)-one] it was 300 to 1000 nM. Take `CO[C@H](C)[C@H]1C(=O)Nc2c(C)nc(N[C@H]3C[C@@H](CNc4cnc(C(F)(F)F)cn4)C3)nc2N1C` [Compound 712, (S)-7-((R)—1-methoxyethyl)-4,8-dimethyl-2-((cis-3-(((5-(trifluoromethyl)pyrazin-2-yl)amino)methyl)cyclobutyl)amino)-7,8-dihydropteridin-6(5H)-one]: for the setting “Homo sapiens, COLO 205, 5 h”, the IC50 was below 300 nM. With `CC[C@H]1C(=O)Nc2c(C)nc(N[C@H]3C[C@@H](CNc4cnc(C(F)(F)F)cn4)C3)nc2N1C` [Compound 713, (S)-7-ethyl-4,8-dimethyl-2-((cis-3-(((5-(trifluoromethyl)pyrazin-2-yl)amino)methyl)cyclobutyl)amino)-7,8-dihydropteridin-6(5H)-one], under “Homo sapiens, COLO 205, 5 h”, the IC50 was below 300 nM. On the same count and under the same terms, the same measure for `Cc1nc(N[C@H]2C[C@@H](CNc3cnc(C(F)(F)F)cn3)C2)nc2c1NC(=O)[C@H](C)N2C` [Compound 714, (S)-4,7,8-trimethyl-2-((cis-3-(((5-(trifluoromethyl)pyrazin-2-yl)amino)methyl)cyclobutyl)amino)-7,8-dihydropteridin-6(5H)-one]: below 300 nM. Same read-out and setting: the same measure for `Cc1nc(N[C@H]2C[C@@H](Nc3ncc(C#N)cc3F)C2)nc2c1NC(=O)[C@H](C(C)C)N2C` [Compound 715, 5-fluoro-6-((cis-3-(((S)-7-isopropyl-4,8-dimethyl-6-oxo-5,6,7,8-tetrahydropteridin-2-yl)amino)cyclobutyl)amino)nicotinonitrile]: 1000 to 5000 nM; for `COCC1(C)C(=O)Nc2c(C)nc(NC3CN(C(=O)c4cc(F)c(F)c(F)c4)C3)nc2N1C` (centres unmarked) [Compound 721, 7-(methoxymethyl)-4,7,8-trimethyl-2-((1-(3,4,5-trifluorobenzoyl)azetidin-3-yl)amino)-7,8-dihydropteridin-6(5H)-one]: 1000 to 5000 nM. As to `COCC1(C)C(=O)Nc2c(C)nc(NC3CN(C(=O)c4cc(F)c(F)c(F)c4)C3)nc2N1C` (centres unmarked) [Compound 722, 7-(methoxymethyl)-4,7,8-trimethyl-2-((1-(3,4,5-trifluorobenzoyl)azetidin-3-yl)amino)-7,8-dihydropteridin-6(5H)-one], the concentration for half-maximal inhibition (IC50) lay in the range of 1000 to 5000 nM. `Cc1nc(N[C@H]2C[C@H](Oc3ccc(C(F)(F)F)nc3)C2)nc2c1NC(=O)[C@H](COC(C)(C)C)N2C` [Compound 725, (S)-7-(tert-butoxymethyl)-4,8-dimethyl-2-((trans-3-((6-(trifluoromethyl)pyridin-3-yl)oxy)cyclobutyl)amino)-7,8-dihydropteridin-6(5H)-one]: under “Homo sapiens, COLO 205, 5 h”, the IC50 was below 300 nM. The same measure, in the same setting: in the case of `Cc1nc(NCc2cnn(Cc3ccc(C(F)(F)F)nc3)c2)nc2c1NC(=O)[C@H](C(C)(C)O)N2C` [Compound 726, (S)-7-(2-hydroxypropan-2-yl)-4,8-dimethyl-2-(((1-((6-(trifluoromethyl)pyridin-3-yl)methyl)-1H-pyrazol-4-yl)methyl)amino)-7,8-dihydropteridin-6(5H)-one] it was 1000 to 5000 nM; in that of `Cc1nc(NCc2cnn(CC3CC(F)(F)C3)c2)nc2c1NC(=O)[C@H](C(C)C)N2C` [Compound 727, (S)-2-(((1-((3,3-difluorocyclobutyl)methyl)-1H-pyrazol-4-yl)methyl)amino)-7-isopropyl-4,8-dimethyl-7,8-dihydropteridin-6(5H)-one], below 300 nM; in that of `CO[C@H](C)[C@H]1C(=O)Nc2c(C)nc(NCc3cnn(CC4CC(F)(F)C4)c3)nc2N1C` [Compound 728, (S)-2-(((1-((3,3-difluorocyclobutyl)methyl)-1H-pyrazol-4-yl)methyl)amino)-7-((R)-1-methoxyethyl)-4,8-dimethyl-7,8-dihydropteridin-6(5H)-one], below 300 nM. Same read-out and setting: in the case of `Cc1nc(NCc2cnn(Cc3cc(F)c(F)c(F)c3)c2)nc2c1NC(=O)[C@H](C(C)(C)O)N2C` [Compound 729, (S)-7-(2-hydroxypropan-2-yl)-4,8-dimethyl-2-(((1-(3,4,5-trifluorobenzyl)-1H-pyrazol-4-yl)methyl)amino)-7,8-dihydropteridin-6(5H)-one] it was below 300 nM; in that of `Cc1nc(N[C@H]2C[C@H](n3ccc(C(F)(F)F)n3)C2)nc2c1NC(=O)[C@H](C(C)C)N2C` [Compound 730, (S)-7-isopropyl-4,8-dimethyl-2-((trans-3-(3-(trifluoromethyl)-1H-pyrazol-1-yl)cyclobutyl)amino)-7,8-dihydropteridin-6(5H)-one], 1000 to 5000 nM.

The values are drawn from patent US20230312587A1, “PTERIDINONE COMPOUNDS AND USES THEREOF” (Vertex Pharmaceutical Incorporated, priority 2018, published 2023).
